# Data published in patent publication US10758609B2, “Cross-reactive T-cell epitopes of HIV, SIV, and FIV for vaccines in humans and cats” (priority 2015, dated 2020).
# Residues, ends and D or L forms follow the SMILES beside them.
# Assays:
# [1] = tested on: CD8^+ T cells from HIV^+ subjects; experiment: FACS-based intracellular staining (ICS) for cytolysin (perforin) and cytotoxins (GrzA, GrzB) in CD8+ T cells; details: HIV-1 epitope peptide; HIV+ human subjects; threshold ≥0.2%
# Procedure: (§1) The overlapping peptide pools of FIV and HIV-1 structural and enzyme proteins were used to stimulate the […] (PBMC) and the T cells from HIV^+ subjects as previously described for epitope mapping of HIV-1 and FIV p24 and reverse transcriptase (RT) (Sanou et al., 2013; Roff et al., 2015). The individual peptides in those peptide pools with positive responses to either interferon-γ (IFNγ) production and/or T-cell proliferation were determined with IFNγ ELISpot analysis and CFSE-based CD3^+CD4^+ and CD3^+CD8^+ T-cell proliferation analyses followed by the FACS-based intracellular staining (ICS) for cytolysin (perforin) and cytotoxin (granzyme A [GrzA] and GrzB) (Sanou et al., 2013; Roff et al., 2015). Besides viral p24 and RT proteins, the identical approach was used to identify anti-HIV/FIV T-cell epitopes on viral matrix (MA), nucleocapsid (NC), protease (PR), RNAase, integrase (IN), surface envelope (SU Env), and transmembrane envelope (TM Env) (FIG. 12).
# (§2) Since our goal is to develop HIV vaccine for human use, the HIV peptides (Table 10) counterpart of the cross-reactive FIV peptides shown in Table 9 were tested with PBMC and T cells from HIV^+ subjects. The immune functions analyzed were human IFNγ production by ELISpot, cytolysin/cytotoxin production by ICS, and CFSE-based proliferation of CD3^+CD4^+ and CD3^+CD8^+ T cells from HIV^+ subjects (Table 10, the first set of results). In addition, the Los Alamos National Laboratories (LANL) database was used to identify the HLA allele(s) of the HIV epitope sequence with CTL activity that can exist within the sequence of the conserved counterpart HIV peptide (Table 9, LANL CTL). The bold HLA class-I supertypes and the bold 2-digit alleles are those on the “Optimal CD8^+ CTL Epitopes” list and those without bold are alleles for potential CTL epitope. […] The HLA class II such as HLA-DRB1 has yet to be fully classified into supertypes, and therefore the 4-digit resolution nomenclatures for the HLA-DRB1 alleles are shown.
# The threshold for positive IFNγ and IL2 ELISpot responses is ≥50 spot-forming units (SFU) per 10^6 PBMC. The threshold for CFSE-based CD4^+ and CD8^+ T-cell proliferation is ≥2% CD4^+ T-cell CFSE^low or CD8^+ T-cell CFSE^low. The threshold of FACS-based intracellular cytokine staining (ICS) is ≥0.2%. […] The nine FIV peptides in black were used in the current MAP vaccine trial, whereas the 13 peptides in blue were not used. […] The MAPs and their corresponding peptide(s) were also tested for their ability to enhance or suppress in vitro FIV infection of feline PBMC (E/S of peptides and E/S of MAP).
# (§3) The counterpart HIV-1 peptides of the FIV peptides were also tested for immunogenicity using PBMC and T cells from HIV^+ human subjects. […] The HRT7-1 and HRT7-2 were also tested with cells from HIV^+ subjects on ART. The threshold for positive IFNγ ELISpot response is ≥75 spot-forming units (SFU) per 10^6 PBMC. The threshold for CFSE-based CD4^+ (CD4^+ T) and CD8^+ (CD8^+ T) T-cell proliferation is ≥2% CD4^+ T-cell CFSE^low or CD8^+ T-cell CFSE^low. The threshold of intracellular cytokine staining (ICS) of FACS-based cytolysin (perforin) and cytotoxins (granzymes A and B) in CD4^+ T cells (CyCD4) and CD8^+ T cells (CyCD8) is ≥0.2%. […] The nine HIV-1 peptides in black are the counterpart FIV peptides used in the current MAP vaccine trial, whereas the 13 peptides in blue were not.
# [2] = tested on: CD4^+ T cells from HIV^+ subjects; details: HIV-1 epitope peptide; HIV+ human subjects; threshold ≥0.2%
# Procedure: as §1, §2, §3
smiles,measurement,setting,value
CSCC[C@H](NC(=O)[C@H](Cc1c[nH]c2ccccc12)NC(=O)[C@H](CC(N)=O)NC(=O)[C@H](CCCCN)NC(=O)[C@@H](NC(=O)[C@H](CCC(=O)O)NC(=O)[C@H](CCC(N)=O)NC(=O)[C@H](CO)NC(=O)[C@H](C)N)C(C)C)C(=O)N[C@H](C(=O)N[C@@H](CCC(=O)O)C(=O)N[C@H](C(=O)N[C@@H](CC(C)C)C(=O)N[C@@H](CC(C)C)C(=O)N[C@H](C(=O)O)C(C)C)[C@@H](C)O)[C@@H](C)O [Hp14-3 (15-2)] (H-ASQEVKNWMTETLLV-OH),"CyCD8: CD8+ T-cell cytolysin/cytotoxins (perforin, GrzA & B), frequency of responders",[1],++++ (>54% (++++))
same,"CyCD4: CD4+ T-cell cytolysin/cytotoxins (perforin, GrzA & B), frequency of responders",[2],++++ (>54% (++++))
